# Measured values from patent US5776944A, “7-(4-aminomethyl-3-methyloxyiminopyrroplidin-1-yl)-1-cyclopropyl-6-flu oro-4-oxo-1,4-dihydro-1,8-naphthyridine-3-carboxylic acid and the process for the preparation thereof” (LG Chemical Ltd., priority 1994, dated 1998).
# Read-outs that look alike come from different tables or passages of the source.
# What was measured:
# Assay type in all cases: cell-based
# [1] = test system: Staphylococcus epidermidis 887E; assay: In vitro antibacterial activity (MIC, agar medium dilution), Biological Example 4; conditions: 18 h, Staphylococcus epidermidis 887E, Table 31, read-out: Minimum Inhibitory Concentration: MIC
# [2] = test system: Streptococcus faecalis 29212; assay: as above; conditions: Enterococcus faecalis, 29212, 18 h, Streptococcus faecalis 29212, Table 31; read-out: Minimum Inhibitory Concentration: MIC
# [3] = test system: Escherichia coli TEM3 3455E; assay: as above; conditions: TEM33455E, 18 h
# [4] = test system: Pseudomonas aeruginosa 10145; assay: as above; conditions: Pseudomonas aeruginosa, 10145, 18 h, read-out: Minimum Inhibitory Concentration: MIC
# [5] = test system: Pseudomonas aeruginosa 6065Y; assay: as above; conditions: 18 h, Table 31, read-out: Minimum Inhibitory Concentration: MIC
# Protocol: (§1) In order to determine the antibacterial activitiers of the E- and Z-isomner of the compound 180 which were separated in Example 203, and of 7- (4-aminomethyl-3-methyloxylminopyrrolidin-1-yl)-1-cyclopropyl-6-fluoro-4-oxo-1,4-dihydro-1,8-naphthyridine-3-carboxylic acid methanesulfonate prepared in Example 204, in vitro antibacterial activities of them were measured using agar medium dilution method. The results were as described in the following Tables 31 and 32.
# Seratis marsecence 1826E = assay: as above; conditions: for MIC: 18 h, Table 31, read-out: Minimum Inhibitory Concentration: MIC
# Protocol: as §1
# [6] = test system: Staphylococcus aureus 6538p; assay: as above; conditions: 18 h, Table 31, read-out: Minimum Inhibitory Concentration: MIC
# [7] = test system: Staphylococcus aureus giorgio; assay: as above; conditions: 18 h, Table 31, read-out: Minimum Inhibitory Concentration: MIC
# Staphylococcus aureus 77 = assay: as above; conditions: 18 h; Staphylococcus aureus 77, Table 31; read-out: Minimum Inhibitory Concentration: MIC
# [8] = test system: Staphylococcus aureus 241; assay: as above; conditions: Staphylococcus aureus, 241, 18 h, Staphylococcus aureus 241, Table 31; read-out: Minimum Inhibitory Concentration: MIC
# [9] = test system: Staphylococcus epidermidis 178; assay: as above; conditions: 18 h; Staphylococcus epidermidis 178, Table 31; read-out: Minimum Inhibitory Concentration: MIC
# Bacillus subtilis 6633 = assay: as above; conditions: 18 h; Bacillus subtilis 6633, Table 31; read-out: Minimum Inhibitory Concentration: MIC
# Micrococcus luteus 9341 = assay: as above; conditions: 18 h; Micrococcus luteus 9341, Table 31; read-out: Minimum Inhibitory Concentration: MIC
# Escherichia coli 10536 = assay: as above; conditions: Escherichia coli, 10536, 18 h, Escherichia coli 10536, Table 31; read-out: Minimum Inhibitory Concentration: MIC
# Escherichia coli 3190Y = assay: as above; conditions: 18 h, Table 31, read-out: Minimum Inhibitory Concentration: MIC
# Escherichia coli 851E = assay: as above; conditions: 18 h, Table 31, read-out: Minimum Inhibitory Concentration: MIC
# [10] = test system: Escherichia coli TEM5 3739E; assay: as above; conditions: TEM53739E, 18 h, read-out: Minimum Inhibitory Concentration: MIC
# [11] = test system: Escherichia coli TEM9 2639E; assay: as above; conditions: TEM92639E, 18 h, read-out: Minimum Inhibitory Concentration: MIC
# [12] = test system: Pseudomonas aeruginosa 1912E; assay: as above; conditions: 18 h, Table 31, read-out: Minimum Inhibitory Concentration: MIC
# [13] = test system: Acinetobacter calcoaceticus 15473; assay: as above; conditions: 18 h; Acinetobacter calcoaceticus 15473, Table 31; read-out: Minimum Inhibitory Concentration: MIC
# [14] = test system: Citrobacter diversus 2046E; assay: as above; conditions: Citrobacter koseri, 18 h, Table 31, read-out: Minimum Inhibitory Concentration: MIC
# [15] = test system: Enterobacter cloacae 1194E; assay: microbe, parasite or virus in culture; conditions: 18 h, read-out: Minimum Inhibitory Concentration: MIC
# Enterobacter cloacae P99 = assay: microbe, parasite or virus in culture; conditions: P99, 18 h, read-out: Minimum Inhibitory Concentration: MIC
# [16] = test system: Klebsiella aerogenes 1976E; assay: In vitro antibacterial activity (MIC, agar medium dilution), Biological Example 4; conditions: 18 h, Table 31, read-out: Minimum Inhibitory Concentration: MIC
# [17] = test system: Klebsiella aerogenes 1082E; assay: as above; conditions: 18 h, Table 31, read-out: Minimum Inhibitory Concentration: MIC
# Proteus vulgaris 6059 = assay: as above; conditions: 18 h; Proteus vulgaris 6059, Table 31; read-out: Minimum Inhibitory Concentration: MIC
# [18] = test system: Salmonella thypimurium 14028; assay: as above; conditions: 18 h; Salmonella thypimurium 14028, Table 31; read-out: Minimum Inhibitory Concentration: MIC
compound,measurement,setting,value
"O=C(O)c1cn(C2CC2)c2cc(N3CCNCC3)c(F)cc2c1=O [Ciprofloxacin, ciprofloxacin, reference compound]",MIC,[1],0.063 µg/mL
same,MIC,[2],1 µg/mL
same,MIC,"[3]; read-out: Minimum Inhibitory Concentration: MIC, Escherichia coli TEM3 3455E, Table 32, ratio of weight",0.5 µg/mL
same,MIC,"[4]; Pseudomonas aeruginosa 10145, Table 32, ratio of weight",0.5 µg/mL
same,MIC,[5],4 µg/mL
same,MIC,Seratis marsecence 1826E,0.063 µg/mL
same,Minimum Inhibitory Concentration: MIC,"Seratis marsecence 1826E; Table 32, ratio of weight",0.063 µg/mL
CO/N=C1/CN(c2nc3c(cc2F)c(=O)c(C(=O)O)cn3C2CC2)CC1CN (stereo not drawn) [E-isomer],MIC,[6],0.063 µg/mL
same,MIC,[7],0.063 µg/mL
same,MIC,Staphylococcus aureus 77,0.063 µg/mL
same,MIC,[8],16 µg/mL
same,MIC,[1],0.031 µg/mL
same,MIC,[9],32 µg/mL
same,MIC,[2],0.25 µg/mL
same,MIC,Bacillus subtilis 6633,0.031 µg/mL
same,MIC,Micrococcus luteus 9341,0.5 µg/mL
same,MIC,Escherichia coli 10536,0.031 µg/mL
same,MIC,Escherichia coli 3190Y,0.016 µg/mL
same,MIC,Escherichia coli 851E,0.063 µg/mL
same,MIC,"[3]; read-out: Minimum Inhibitory Concentration: MIC, Escherichia coli TEM3 3455E, Table 31",0.5 µg/mL
same,MIC,[10],0.5 µg/mL
same,MIC,[11],0.13 µg/mL
same,MIC,[12],1 µg/mL
same,MIC,"[4]; Pseudomonas aeruginosa 10145, Table 31",2 µg/mL
same,MIC,[5],32 µg/mL
same,MIC,Seratis marsecence 1826E,0.5 µg/mL
same,MIC,[13],0.25 µg/mL
same,MIC,[14],0.13 µg/mL
same,MIC,[15],0.13 µg/mL
same,MIC,Enterobacter cloacae P99,0.031 µg/mL
same,MIC,[16],0.25 µg/mL
same,MIC,[17],0.13 µg/mL
same,MIC,Proteus vulgaris 6059,1 µg/mL
same,MIC,[18],0.13 µg/mL
